Data as given in US20060270634A1, “Acetal phosphate-derived LPA mimics, PPARgamma activators, and autotaxin inhibitors” (priority 2005, published 2006).
Entries after “also recorded” stand apart in the source; their conditions may differ. Read-outs that look alike come from different tables or passages of the source.

Key:
LPA2 = LPA2 (Homo sapiens, UniProt Q9HBW0); assay: Ca2+ transients in RH7777 cells expressing LPA2 (agonist / inhibition of LPA response); settings: for Emax: RH7777, read-out: LPA2 (Emax)
Chain of LPA2 (Q9HBW0 whole entry, species assumed): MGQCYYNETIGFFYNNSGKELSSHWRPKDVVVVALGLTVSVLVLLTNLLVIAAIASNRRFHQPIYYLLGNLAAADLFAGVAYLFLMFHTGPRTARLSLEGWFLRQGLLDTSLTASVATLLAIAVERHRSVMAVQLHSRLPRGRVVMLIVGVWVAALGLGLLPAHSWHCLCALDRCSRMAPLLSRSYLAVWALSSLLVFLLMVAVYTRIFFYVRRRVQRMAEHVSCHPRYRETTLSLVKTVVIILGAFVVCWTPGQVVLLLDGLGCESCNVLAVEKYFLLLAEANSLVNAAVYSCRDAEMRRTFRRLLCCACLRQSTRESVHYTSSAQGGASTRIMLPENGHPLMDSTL
Protocol: (§1) The biological effects of all synthesized compounds were testing using three high-throughput assays. First, intracellular calcium transients in rat hepatoma (RH777, an LPA receptor null cell) cell lines individually expressing either LPA1, LPA2, and LPA3 receptors were analyzed to evaluate compounds as agonists or antagonists.
(§2) Synthesized compounds were tested for induction and inhibition of LPA-induced calcium transients in rat hepatoma (RH7777) cell lines that stably express individual LPA1, LPA2, and LPA3 receptors as described in the literature using a FlexStation II automated fluorimeter (Molecular Devices, Sunnyvale, Calif.).
(§3) RH7777 cells, which lack LPA GPCR, were stably transfected with individual LPA1, LPA2 and LPA3 receptors and used for the in vitro screening.

LPA1 = LPA1 (Homo sapiens, UniProt Q92633); assay: Ca2+ transients in RH7777 cells expressing LPA1 (agonist / inhibition of LPA response); settings: for LPA1 effect in words: Tables 2, 4, 6
Chain of LPA1 (Q92633 whole entry, species assumed): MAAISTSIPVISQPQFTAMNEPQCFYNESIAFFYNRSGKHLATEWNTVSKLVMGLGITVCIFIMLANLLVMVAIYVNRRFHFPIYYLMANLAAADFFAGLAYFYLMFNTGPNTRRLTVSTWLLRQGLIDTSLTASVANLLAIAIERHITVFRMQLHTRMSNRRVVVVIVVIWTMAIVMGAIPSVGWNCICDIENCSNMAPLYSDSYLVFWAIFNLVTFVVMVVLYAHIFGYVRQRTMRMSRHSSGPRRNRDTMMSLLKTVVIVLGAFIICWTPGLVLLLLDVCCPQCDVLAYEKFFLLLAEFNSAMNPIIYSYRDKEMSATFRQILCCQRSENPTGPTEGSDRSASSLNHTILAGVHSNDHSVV
Protocol: as §1, §2, §3

LPA3 = biological target: T1, LPA3 (Homo sapiens, UniProt Q9UBY5); assay: Ca2+ transients in RH7777 cells expressing LPA3 (agonist / inhibition of LPA response); settings: for Ki: read-out: LPA3 (Ki); for LPA3 effect in words: Tables 2, 4, 6
T1 sequence (Q9UBY5 1-353): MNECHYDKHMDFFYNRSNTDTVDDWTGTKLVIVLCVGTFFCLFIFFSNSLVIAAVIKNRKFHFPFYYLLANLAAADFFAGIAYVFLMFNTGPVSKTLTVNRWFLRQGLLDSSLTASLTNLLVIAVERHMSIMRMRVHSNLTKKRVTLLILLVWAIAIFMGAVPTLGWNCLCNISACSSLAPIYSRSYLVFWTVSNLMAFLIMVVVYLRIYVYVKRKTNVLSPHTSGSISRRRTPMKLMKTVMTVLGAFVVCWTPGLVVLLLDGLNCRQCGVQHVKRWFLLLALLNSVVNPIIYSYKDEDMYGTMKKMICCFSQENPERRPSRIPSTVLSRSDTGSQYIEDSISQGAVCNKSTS
Protocol: as §1, §2, §3

[1] = read-out: LPA1 IC50, 200 nM LPA
[2] = read-out: LPA3 IC50, 200 nM LPA

`CCCCCCCC/C=C\CCCCCCC[C@H]1OC[C@H](COP(=O)(O)O)O1` [Analog 23] showed an EC50 (LPA2; LPA2 (nM) EC50, Table 1) of over 30000 nM and an IC50 (LPA2; LPA2 (nM) IC50, Table 1) of over 30000 nM.
With `CCCCCCCCOC[C@@H](COP(O)(O)=S)OCCCCCCCC` [Cpd 13a, dialkyl thiophosphatidic acid 8:0] the Ki (LPA1; read-out: LPA1 (Ki), Table 5) was 139 nM, the IC50 (LPA1; [1]) was 328 nM and the IC50 (LPA1; read-out: LPA1 IC50, Table 5) was 328 nM. For the same molecule, the “LPA2 effect in words” value (LPA2; *transient) was “Weak stimulation *transient”, the Ki (LPA3; Table 5) was 67 nM and the IC50 (LPA3; [2]) was 184 nM. It also gave an IC50 (LPA3; read-out: LPA3 IC50, Table 5) of 184 nM.
Work on `CCCCCCCC/C=C\CCCCCCC[C@H]1OC[C@@H](COP(=O)(O)O)O1` [Analog 25] yielded an EC50 (LPA2; LPA2 (nM) EC50, Table 1) of 1170 nM and an IC50 (LPA2; LPA2 (nM) IC50, Table 1) of over 30000 nM.
For `CCCCCCCC/C=C\CCCCCCC[C@@H]1OC[C@@H](COP(O)(O)=S)O1` [Analog 28], the IC50 (LPA2) was over 30000 nM and the EC50 (LPA2; LPA2 (nM) EC50, Table 1) was 1710 nM.
In the case of `CCCCCCCC/C=C\CCCCCCC[C@H]1OC[C@H](COP(O)(O)=S)O1` [Analog 24], the IC50 (LPA2) is reported as over 30000 nM and the EC50 (LPA2; LPA2 (nM) EC50, Table 1) is reported as 1320 nM.
In the case of `CCCCCCCC/C=C\CCCCCCC[C@@H]1OC[C@H](COP(=O)(O)O)O1` [Analog 21], the EC50 (LPA2; LPA2 (nM) EC50, Table 1) is reported as over 10000 nM, the IC50 (LPA2; LPA2 (nM) IC50, Table 1) is reported as over 30000 nM and the EC50 (LPA3) is reported as over 30000 nM. For the same molecule, the IC50 (LPA3) was 484 nM.
For `CCCCCCCCOC[C@H](COP(O)(O)=S)OCCCCCCCC` [Cpd 13b, 2(R)-ATPA 8:0], the “LPA1 agonist/antagonist activity in words” value (LPA1) was “agonists; also recorded: Enantiospecific activation”, the Emax (LPA1; RH7777, read-out: LPA1 (Emax)) was 30% and the “LPA1 effect in words” value (LPA1) was “Partial agonist”. The EC50 (LPA1; read-out: LPA1 EC50) was 695 nM, the EC50 (LPA1; read-out: LPA1 EC50, Table 5, PA 8:0 analogs) was 695 nM and the “LPA2 agonist/antagonist activity in words” value (LPA2) was “weak and partial agonist”. For the same molecule, the “LPA2 effect in words” value (LPA2; *transient) was “Partial agonist”, the EC50 (LPA2; LPA2 EC50, *transient) was 1020 nM and the Emax (LPA2) was 27%. For the same molecule, the “LPA3 agonist/antagonist activity in words” value (LPA3) was “agonists; also recorded: potent LPA3 receptor subtype-selective agonist; also recorded: full agonist”, the “selectivity for LPA3 over LPA1” value (LPA3) was about 230 fold and the “selectivity for LPA3 over LPA2” value (LPA3) was about 1900 fold. The Emax (LPA3; RH7777, read-out: LPA3 (Emax)) was 109%, the Emax (LPA3; RH7777, read-out: LPA3 Emax) was 109% and the “LPA3 effect in words” value (LPA3) was “Full agonist”. For the same molecule, the EC50 (LPA3; read-out: LPA3 EC50) was 3 nM, the EC50 (LPA3; read-out: LPA3 EC50, Table 5) was 3 nM and the EC50 (LPA3; read-out: LPA3 EC50, text) was 3 nM.
`CCCCCCCC(=O)OC[C@@H](COP(O)(O)=S)OC(=O)CCCCCCC` [Cpd 8a, thiophosphatidic acid 8:0] was tested, and the “LPA1 agonist/antagonist activity in words” value (LPA1) was “lacked LPA1/3 antagonism”, the “LPA2 agonist/antagonist activity in words” value (LPA2) was “partial agonist” and the Emax (LPA2) was 17%. For the same molecule, the EC50 (LPA2; read-out: LPA2 EC50, Table 5) was 7170 nM, the “LPA3 agonist/antagonist activity in words” value (LPA3) was “partial agonist” and the Emax (LPA3; RH7777, read-out: LPA3 (Emax)) was 30%. For the same molecule, the EC50 (LPA3; read-out: LPA3 EC50, Table 5) was 115 nM.
For `CCCCCCCCCCCCCCC(F)(F)P(=O)(O)O`, the “LPA1 effect in words” value (LPA1) was “Weak inhibition”, the EC50 (LPA2; LPA2 EC50, Table 4) was about 10000 nM and the “LPA2 effect in words” value (LPA2; Table 4) was “Weak agonist”. The IC50 (LPA3; [2]) was 1510 nM.
`CCCCCCCCCCCCC1OCC(COP(=O)(O)O)O1` (stereo not shown) [Analog 4] gave an EC50 (LPA1) of over 30000 nM, an IC50 (LPA1; LPA1 (nM) IC50, Table 1) of 1110 nM and an IC50 (LPA1; LPA1 IC50, text) of 1100 nM. The EC50 (LPA2; LPA2 EC50, text) was 1180 nM, the EC50 (LPA3) was over 30000 nM and the IC50 (LPA3) was 2870 nM.
Work on `CCCCCCCCNC(=O)[C@@H](COP(O)(O)=S)NC(=O)CCCCCCC` [Cpd 20b] yielded a Ki (LPA1; read-out: LPA1 (Ki), Table 5) of 2850 nM, an IC50 (LPA1; read-out: LPA1 IC50, Table 5) of 7390 nM and a Ki (LPA3; Table 5) of 118 nM. It also gave an IC50 (LPA3; read-out: LPA3 IC50, Table 5) of 302 nM.
`CCCCCCCCc1ccc(CCCCCCC2OCC(COP(=O)(O)O)O2)cc1` (stereo not shown) [ID 14] was tested, and the IC50 (LPA1; [1]) was 4660 nM and the “LPA3 effect in words” value (LPA3) was “Partial agonist”.
With `CCCCCCCCNC(=O)[C@H](COP(O)(O)=S)NC(=O)CCCCCCC` [Cpd 20a] the Ki (LPA1; read-out: LPA1 (Ki), Table 5) was 152 nM, the IC50 (LPA1; read-out: LPA1 IC50, Table 5) was 476 nM and the Ki (LPA3; Table 5) was 117 nM. It also gave an IC50 (LPA3; read-out: LPA3 IC50, Table 5) of 251 nM.
In the case of `CCCCCCCCc1ccc(CCCCCCC2OCC(COP(O)(O)=S)O2)cc1` (stereo not shown) [ID 15], the “LPA1 effect in words” value (LPA1) is reported as “Weak antagonist”.
In the case of `CCCCCCCC/C=C\CCCCCCC[C@@H]1OC[C@H](COP(O)(O)=S)O1` [Analog 22], the IC50 (LPA2) is reported as over 30000 nM, the EC50 (LPA2; LPA2 (nM) EC50, Table 1) is reported as 1540 nM and the EC50 (LPA3) is reported as 204 nM. For the same molecule, the IC50 (LPA3) was over 30000 nM.
For `CCCCCCCC(=O)OCC(COP(=O)(O)O)OC(=O)CCCCCCC` (stereo not shown) [Cpd 2, phosphatidic acid 8:0, reference compound], the Ki (LPA1) was 407 nM and the IC50 (LPA1; LPA1 IC50, Table 5) was 692 nM.
In the case of `CCCCCCCC/C=C\CCCCCCCC1OCC(COP(=O)([O-])O)O1.[K+]` (stereo not shown) [Analog 5], the “LPA2 agonist/antagonist activity in words” value (LPA2) is reported as “full LPA2 agonist”, the EC50 (LPA2; LPA2 (nM) EC50, Table 1) is reported as 68 nM and the EC50 (LPA3) is reported as over 30000 nM. The IC50 (LPA3) was 527 nM and the “LPA3 agonist/antagonist activity in words” value (LPA3) was “LPA1/3 antagonist”.
